Patent US20240043483A1, “TAU BIOSENSOR CELL LINES” (THE BOARD OF REGENTS OF THE UNIVERSITY OF TEXAS SYSTEM, priority 2020, published 2024)

Assays:
Type in all cases: cell-based, human
[1] = system: P301S v2L HEK biosensor cells; experiment: Seeding assay, percent FRET positivity by flow cytometry, v2L biosensor cells
Source text: A lentiviral FM5-YFP plasmid containing the tau segment 246 to 378 with the P301S mutation, was used as a template, where the human ubiquitin C (Ubc) promoter was replaced with a human cytomegalovirus (CMV) promoter, and the YFP sequence was replaced with a mCerulean 3 or mClover3 coding sequences (see FIGS. 1 and 2). The sequence linking the tau segment and the coding sequence of the fluorophore (Cer or Co) was optimized to the following sequence: GSAGSAAGSGEF (SEQ ID NO:41). Low passage HEK293T cells (P5) were thawed and passaged with antibiotic free media twice before being co-administration of lentivirus encoding tau RD(P301S)-Clo/Cer tau lentivirus. After four passages, single cells were cell sorted by FACS based on low or high signal for both mCerulean3 and mClover3, termed version 2 low (v2L) or version 2 high (v2H). Monoclonal colonies were expanded and characterized as described.
Wild-type full-length (2N4R) tau was synthesized and purified. […]
(§1) P301S4 or P301S v2L or v2H HEK biosensor cells were plated in 96-well plates at 20,000 cells per well 24 hours before treatment. dilutions of recombinant tau fibrils or brain homogenates in Opti-MEM (Thermo Fisher), 30 μl total volume, or immunoprecipitation eluents 120 μl total volume, were allowed to come to room temperature. […] After 48 hours, cells were trypsinized and fixed in 2% PFA and suspended in flow cytometry buffer (1×HBSS, 1% FBS, 1 mM EDTA). percent FRET positivity was determined of each well by flow cytometry.
(§2) The sensitivity of v2L and v2H cells was first compared to the original line. synthetic fibrils based on exposure of recombinant tau protein to heparin were created. The fibrils were incubated with cells in the absence or presence of Lipofectamine 2000 for 48 h and quantified the percentage of FRET-positive cells using flow cytometry to determine the lower limit of detection. […] In the absence of cationic lipid reagent, 1.6 pM tau were detected in v2L cells and 0.78 pM tau in v2H cells (FIGS. 5A and 5B). […]

[2] = system: P301S v2H HEK biosensor cells; experiment: Seeding assay, percent FRET positivity by flow cytometry, v2H biosensor cells; details: for lower limit of detection (LLD), lowest quantity producing FRET positivity statistically distinguishable from background: v2H, T-test p<0.05
P301S v1 biosensor cells = experiment: Seeding assay, percent FRET positivity by flow cytometry, v1 (original) biosensor cells; details: T-test p<0.05
Description: Wild-type full-length (2N4R) tau was synthesized and purified. 8 μM purified recombinant tau was incubated with 8 uM heparin and 10 mM DTT at 37 C for 48 h in 10 mM HEPES, 100 mM NaCL, PH 7.4. The quality of fibrils was verified by transmission electron microscopy.
as §1, §2

HEK biosensor cells = experiment: Immunoprecipitation from spiked control CSF followed by seeding assay; details: 1 ml control CSF spiked
Description: 50 μl of Dynabeads Protein A (Thermo Fisher) were washed per the manufacturer protocol and incubated with 10 μg of polyclonal antibody (TauA, Diamond Lab) against the first microtubule-binding repeat of tau for 1 hour at room temperature. washed beads were then added to 1 or 5 ml of human CSF and incubated with rotation overnight at 4° C. Captured proteins were eluted in low pH elution buffer (Pierce) and neutralized the buffer with 1:10 1M Tris pH 8.5 with a final volume of 120 μl.
as §1
To determine the lower limit of detection of tau seeds in CSF, control CSF were spiked with small quantities of AD frontal cortex protein (brain AD1) or recombinant tau fibrils. the AD seeds were concentrated and purified using a rabbit polyclonal antibody directed against tau RD (TauA).

Substance: recombinant tau fibrils: Wild-type full-length (2N4R) recombinant tau incubated with heparin and DTT at 37 C for 48 h to form fibrils
- tau detected (lower limit of detection) ([1]; v2L cells, absence of cationic lipid reagent, FIGS. 5A and 5B): 1.6 pM
- lower limit of detection (detected, monomer equivalent) ([1]; v2L cells, presence of Lipofectamine 2000, 48 h, FIGS. 4A and 4B): 10 fM
- sensitivity versus the original line ([1]; v2L lines versus original biosensor line): approximately 10 fold
- tau detected (lower limit of detection) ([2]; v2H cells, absence of cationic lipid reagent, FIGS. 5A and 5B): 0.78 pM
- lower limit of detection (detected, monomer equivalent) ([2]; v2H cells, presence of Lipofectamine 2000, 48 h, FIGS. 4A and 4B): 32 aM
- sensitivity versus the original biosensor cell line ([2]; v2H line versus original biosensor line): more than 300 fold
- lower limit of detection (LLD), lowest quantity producing FRET positivity statistically distinguishable from background ([2]; Lipofectamine seeding): 32 amol per sample
- lower limit of detection (LLD), lowest quantity producing FRET positivity statistically distinguishable from background ([2]; naked seeding): 0.78 pmol
- lower limit of detection (LLD), lowest quantity producing FRET positivity statistically distinguishable from background (P301S v1 biosensor cells; v1, Lipofectamine seeding): 10 fmol per sample
- lower limit of detection (LLD), lowest quantity producing FRET positivity statistically distinguishable from background (P301S v1 biosensor cells; v1, naked seeding): 1.6 pmol
- seeding activity detected in spiked CSF after IP, lowest level (monomer equivalent) (HEK biosensor cells; IP with TauA antibody, FIG. 7C): 100 attomolar
- seeding detected from spiked samples down to (tau monomer equivalent) (HEK biosensor cells; IP, FIG. 7): 100 attomoles
